# Tested on: Saos-2 cells
# Assay: GCV tolerance (toxicity of GCV alone to cells)
# Format: cell-based, human
# Conditions: 1.25×10^−5-6.2×10^−5M
# Procedure: The GCV tolerance profile of Saos-2 cells was determined in parallel by treating the cells with various concentrations of GCV (ranging from 0.1 μmole to 2 mM).
# The toxicity of the GCV to cells were analysed by subjecting the cells to various concentration of GCV (ranging from 0.1 μmole to 2 mM GCV at 37° C.) for 3 days. The remaining steps of the treatment were carried out as the tk-GCV assay.
smiles,measurement,value
"Nc1nc(O)c2ncn(COC(CO)CO)c2n1 [Gancyclovir, Ganciclovir]",effect on cell viability of gancyclovir by itself,no effect
